Among the data in patent publication US7109193B2, “Tricyclic diazepines tocolytic oxytocin receptor antagonists” (Wyeth, priority 2001, dated 2006) are inhibition values, retold here.

What is called inhibition is the percentage by which the read-out fell short of the control.

The assay deals with T1, human oxytocin receptor (Homo sapiens, UniProt P30559).
T1 construct: host or cells: CHO cells (pcDNA3.1 vector)
T1 sequence (P30559 1-389): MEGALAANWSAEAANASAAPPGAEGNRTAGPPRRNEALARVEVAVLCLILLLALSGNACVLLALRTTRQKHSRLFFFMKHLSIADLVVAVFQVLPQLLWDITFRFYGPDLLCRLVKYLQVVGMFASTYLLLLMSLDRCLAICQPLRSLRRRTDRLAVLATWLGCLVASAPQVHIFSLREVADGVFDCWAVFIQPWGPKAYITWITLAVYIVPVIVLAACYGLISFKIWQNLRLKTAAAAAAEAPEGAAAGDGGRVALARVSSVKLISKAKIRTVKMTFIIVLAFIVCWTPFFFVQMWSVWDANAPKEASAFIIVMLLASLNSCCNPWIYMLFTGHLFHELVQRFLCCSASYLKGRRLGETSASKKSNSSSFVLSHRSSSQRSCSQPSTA
The assay can be described thus: Oxytocin binding in Chinese Hamster Ovary cell membranes expressing human oxytocin receptors. Particulars: 100 nM, CHO cell membranes, [3H]oxytocin, values without parentheses, read-out: OT % inhibition @ 100% nM.

`COc1cccc(-c2ccc(C(=O)N3Cc4ccc(C(=O)N5CCN(C(C)C)CC5)n4Cc4ccccc43)cc2OC)c1` [Example 242, {10-[(2,3′-Dimethoxy[1,1′-biphenyl]-4-yl)carbonyl]-10,11-dihydro-5H-pyrrolo[2,1-c][1,4]benzodiazepin-3-yl}(4-isopropyl-1-piperazinyl)methanone]: the inhibition at 0.1 µM worked out at 69%. For `COc1cc(C(=O)N2Cc3ccc(C(=O)N(C)C4CCN(C)CC4)n3Cc3ccccc32)ccc1-c1cccc2ccccc12` [Example 182, 10-[3-Methoxy-4-(1-naphthyl)benzoyl]-N-methyl-N-(1-methyl-4-piperidinyl)-10,11-dihydro-5H-pyrrolo[2,1-c][1,4]benzodiazepine-3-carboxamide], the inhibition at 0.1 µM turned out to be 70%. Next, `COc1cc(C(=O)N2Cc3ccc(C(=O)N(C)C4CCN(C)C4)n3Cc3ccccc32)ccc1-c1cccc2ccccc12` (stereo not drawn) [Example 192, 10-[3-Methoxy-4-(1-naphthyl)benzoyl]-N-methyl-N-(1-methyl-3-pyrrolidinyl)-10,11-dihydro-5H-pyrrolo[2,1-c][1,4]benzodiazepine-3-carboxamide]: 91%; `Cc1cc(C(=O)N2Cc3ccc(C(=O)N(C)C4CCN(C)CC4)n3Cc3ccccc32)ccc1-c1ccccc1C(F)(F)F` [Example 184, N-Methyl-N-(1-methyl-4-piperidinyl)-10-{[2-methyl-2′-(trifluoromethyl)[1,1′-biphenyl]-4-yl]carbonyl}-10,11-dihydro-5H-pyrrolo[2,1-c][1,4]benzodiazepine-3-carboxamide]: 83%. Next, `COc1cccc(-c2cc(OC)c(C(=O)N3Cc4ccc(C(=O)N(C)C5CCN(C)CC5)n4Cc4ccccc43)cc2Cl)c1` [Example 181, 10-[(6-Chloro-3,3′-dimethoxy[1,1′-biphenyl]-4-yl)carbonyl]-N-methyl-N-(1-methyl4-piperidinyl)-10,11-dihydro-5H-pyrrolo[2,1-c][1,4]benzodiazepine-3-carboxamide]: 100%; `COc1cccc(-c2cc(OC)c(C(=O)N3Cc4ccc(C(=O)N(C)C5CCN(C)C5)n4Cc4ccccc43)cc2Cl)c1` (stereo not drawn) [Example 191, 10-[(6-Chloro-3,3′-dimethoxy[1,1′-biphenyl]-4-yl)carbonyl]-N-methyl-N-(1-methyl-3-pyrrolidinyl)-10,11-dihydro-5H-pyrrolo[2,1-c][1,4]benzodiazepine-3-carboxamide]: 100%; `Cc1ccccc1-c1ccc(C(=O)N2Cc3ccc(C(=O)N4CCN(CCN(C)C)CC4)n3Cc3ccccc32)cc1C` [Example 198, {4-[2-(Dimethylamino)ethyl]-1-piperazinyl}{10-[(2,2′-dimethyl[1,1′-biphenyl]-4-yl)carbonyl]-10,11-dihydro-5H-pyrrolo[2,1-c][1,4]benzodiazepin-3-yl}methanone]: 94%. Next, `COc1ccccc1-c1ccc(C(=O)N2Cc3ccc(C(=O)N4CCN(C(C)C)CC4)n3Cc3ccccc32)cc1C` [Example 232, (4-Isopropyl-1-piperazinyl){10-[(2′-methoxy-2-methyl[1,1′-biphenyl]-4-yl)carbonyl]-10,11-dihydro-5H-pyrrolo[2,1-c][1,4]benzodiazepin-3-yl}methanone]: 81%; `O=C(c1ccc2n1Cc1ccccc1N(C(=O)c1ccc(-c3cccc4ccccc34)cc1Cl)C2)N1CCN(CCN2CCOCC2)CC1` [Example 215, {10-[2-Chloro-4-(1-naphthyl)benzoyl]-10,11-dihydro-5H-pyrrolo[2,1-c][1,4]benzodiazepin-3-yl}{4-[2-(4-morpholinyl)ethyl]-1-piperazinyl}methanone]: 26%; `C=CCN1CCN(C(=O)c2ccc3n2Cc2ccccc2N(C(=O)c2ccc(-c4cccc5ccccc45)cc2Cl)C3)CC1` [Example 229, (4-Allyl-1-piperazinyl){10-[2-chloro-4-(1-naphthyl)benzoyl]-10,11-dihydro-5H-pyrrolo[2,1-c][1,4]benzodiazepin-3-yl}methanone]: 19%. As for `COc1cccc(-c2ccc(C(=O)N3Cc4ccc(C(=O)N(C)C5CCN(C)C5)n4Cc4ccccc43)cc2C)c1` (stereo not drawn) [Example 186, 10-[(3′-Methoxy-2-methyl[1,1′-biphenyl]-4-yl)carbonyl]-N-methyl-N-(1-methyl-3-pyrrolidinyl)-10,11-dihydro-5H-pyrrolo[2,1-c][1,4]benzodiazepine-3-carboxamide], the inhibition at 0.1 µM was 97%. Next, `COc1cccc(-c2cc(OC)c(C(=O)N3Cc4ccc(C(=O)N5CCN(C(C)C)CC5)n4Cc4ccccc43)cc2Cl)c1` [Example 239, {10-[(6-Chloro-3,3′-dimethoxy[1,1′-biphenyl]-4-yl)carbonyl]-10,11-dihydro-5H-pyrrolo[2,1-c][1,4]benzodiazepin-3-yl}(4-isopropyl-1-piperazinyl)methanone]: 61%; `COc1ccccc1-c1ccc(C(=O)N2Cc3ccc(C(=O)N(C)C4CCN(C)CC4)n3Cc3ccccc32)cc1` [Example 177, 10-[(2′-Methoxy[1,1′-biphenyl]-4-yl)carbonyl]-N-methyl-N-(1-methyl-4-piperidinyl)-10,11-dihydro-5H-pyrrolo[2,1-c][1,4]benzodiazepine-3-carboxamide]: 98%. For the compound `COc1cc(C(=O)N2Cc3ccc(C(=O)NCCN4CCCCC4)n3Cc3ccccc32)ccc1-c1cccc2ccccc12` [Example 157, 10-[3-Methoxy-4-(1-naphthyl)benzoyl]-N-[2-(1-piperidinyl)ethyl]-10,11-dihydro-5H-pyrrolo[2,1-c][1,4]benzodiazepine-3-carboxamide], the inhibition at 0.1 µM worked out at 38%. Next, `CN1CCCC1CCNC(=O)c1ccc2n1Cc1ccccc1N(C(=O)c1ccc(-c3cccc4ccccc34)cc1Cl)C2` (stereo not drawn) [Example 173, 10-[2-Chloro-4-(1-naphthyl)benzoyl]-N-[2-(1-methyl-2-pyrrolidinyl)ethyl]-10,11-dihydro-5H-pyrrolo[2,1-c][1,4]benzodiazepine-3-carboxamide]: 21%.

As for `O=C(NCCN1CCCCC1)c1ccc2n1Cc1ccccc1N(C(=O)c1ccc(-c3cccc4ccccc34)cc1Cl)C2` [Example 160, 10-[2-Chloro-4-(1-naphthyl)benzoyl]-N-[2-(1-piperidinyl)ethyl]-10,11-dihydro-5H-pyrrolo[2,1-c][1,4]benzodiazepine-3-carboxamide], the inhibition at 0.1 µM was found to be 20%. `COc1ccccc1-c1ccc(C(=O)N2Cc3ccc(C(=O)NCCC4CCCN4C)n3Cc3ccccc32)cc1` (stereo not drawn) [Example 165, 10-[(2′-Methoxy[1,1′-biphenyl]-4-yl)carbonyl]-N-[2-(1-methyl-2-pyrrolidinyl)ethyl]-10,11-dihydro-5H-pyrrolo[2,1-c][1,4]benzodiazepine-3-carboxamide]: the inhibition at 0.1 µM was found to be 64%. Next, `COc1cc(C(=O)N2Cc3ccc(C(=O)N4CCN(C(C)C)CC4)n3Cc3ccccc32)ccc1-c1ccccc1C` [Example 237, (4-isopropyl-1-piperazinyl){10-[(2-methoxy-2′-methyl[1,1′-biphenyl]-4-yl)carbonyl]-10,11-dihydro-5H-pyrrolo[2,1-c][1,4]benzodiazepin-3-yl}methanone]: 79%; `C=CCN1CCN(C(=O)c2ccc3n2Cc2ccccc2N(C(=O)c2ccc(-c4cccc5ccccc45)c(OC)c2)C3)CC1` [Example 231, (4-Allyl-1-piperazinyl){10-[3-methoxy-4-(1-naphthyl)benzoyl]-10,11-dihydro-5H -pyrrolo[2,1-c][1,4]benzodiazepin-3-yl}methanone]: 63%; `C=CCN1CCN(C(=O)c2ccc3n2Cc2ccccc2N(C(=O)c2cc(Cl)c(-c4cccc(OC)c4)cc2OC)C3)CC1` [Example 226, (4-Allyl-1-piperazinyl){10-[(6-chloro-3,3′-dimethoxy[1,1′-biphenyl]-4-yl)carbonyl]-10,11-dihydro-5H-pyrrolo[2,1-c][1,4]benzodiazepin-3-yl}methanone]: 71%. Next, `COc1ccccc1-c1ccc(C(=O)N2Cc3ccc(C(=O)N4CCN(C(C)C)CC4)n3Cc3ccccc32)cc1` [Example 234, (4-Isopropyl-1-piperazinyl){10-[(2′-methoxy[1,1′-biphenyl]-4-yl)carbonyl]-10,11-dihydro-5H-pyrrolo[2,1-c][1,4]benzodiazepin-3-yl}methanone]: 82%; `COc1cccc(-c2ccc(C(=O)N3Cc4ccc(C(=O)N(C)C5CCN(C)CC5)n4Cc4ccccc43)cc2C)c1` [Example 176, 10-[(3′-Methoxy-2-methyl[1,1′-biphenyl]-4-yl)carbonyl]-N-methyl-N-(1-methyl-4-piperidinyl)-10,11-dihydro-5H-pyrrolo[2,1-c][1,4]benzodiazepine-3-carboxamide]: 88%; `COc1ccccc1-c1ccc(C(=O)N2Cc3ccc(C(=O)N4CCN(CCN(C)C)CC4)n3Cc3ccccc32)cc1OC` [Example 204, {10-[(2,2′-Dimethoxy[1,1′-biphenyl]-4-yl)carbonyl]-10,11-dihydro-5H-pyrrolo[2,1-c][1,4]benzodiazepin-3-yl}{4-[2-(dimethylamino)ethyl]-1-piperazinyl}methanone]: 72%. Next, `COc1cc(C(=O)N2Cc3ccc(C(=O)N4CCN(CCN(C)C)CC4)n3Cc3ccccc32)ccc1-c1ccccc1C` [Example 201, {4-[2-(Dimethylamino)ethyl]-1-piperazinyl}{10-[(2-methoxy-2′-methyl[1,1′-biphenyl]-4-yl)carbonyl]-10,11-dihydro-5H-pyrrolo[2,1-c][1,4]benzodiazepin-3-yl}methanone]: 86%.
